From patent publication US20100041744A1, “OILY PACLITAXEL COMPOSITION AND FORMULATION FOR CHEMOEM[…] PREPARATION METHOD THEREOF” (priority 2001, published 2010)
Values after ≈ are worked out from the molar mass of the structure shown.

Experiments:
[1] = physchem; conditions: oil or lipid
[2] = Solubilization / solubility of paclitaxel in oily contrast medium

Question: Which solubility ([1]; Lipiodol (oily contrast medium), 26 °C, thermodynamic from solid) does the source give for `CC(=O)O[C@H]1C(=O)[C@@]2(C)[C@H]([C@H](OC(=O)c3ccccc3)[C@]3(O)C[C@H](OC(=O)[C@H](O)[C@@H](NC(=O)c4ccccc4)c4ccccc4)C(C)=C1C3(C)C)[C@]1(OC(C)=O)CO[C@@H]1C[C@@H]2O` [paclitaxel] here?
Answer: ~10000 µg/mL (≈ 11.7 mM)

Question: And the solubility [1]?
Answer: ≤ 13000 µg/mL

Question: What about the “solubility of paclitaxel in mixed oil system of lipiodol/tricaprylin compared with lipiodol alone” value [2] of the same compound?
Answer: higher
